We go through three compounds from patent US11213497B2, “Antibiofilm formulations” (ARIZONA BOARD OF REGENTS ON BEHALF OF NORTHERN ARIZONA …, priority 2017, dated 2022).

Some results are limits rather than exact numbers.

In one series the test system is MSSA. Kind of series: MBEC of geranic acid in solution (Hepes buffer). The following applies: 50 mM Hepes buffer. In kind it is cell-based, Staphylococcus aureus. The source says:
Neutral species in DES may be uniquely important to potentiate otherwise bioactive IL. […] At this pH, most of the acid is expected to be found in the protonated state (pKa is ˜5-5.5 according to the literature). […] Many different DES can be envisioned with this same platform of 1:1 anion:cation as an EPS disruptor/delivery agent with a neutral acid (or even a completely neutral species such as an isoprenoid hydrocarbon) as a molecule designed to saturate both leaflets of a cellular membrane.

The conditions of series [1]: according to the literature; cited from earlier work.
Series [2] concerns mammalian skin cell lines.

Protocol for MSSA biofilms: Biofilms of Methicillin-sensitive Staphylococcus aureus (MSSA) were established on the pegs of a biofilm inoculator (Innovotech) according to the manufacturer's instructions. Briefly, a bacterial colony of MSSA was inoculated from an agar streak plate into cation-adjusted Mueller-Hinton broth (5 mL) and grown to confluence overnight in a shaker incubator (37° C., 200 rpm). The confluent culture was then diluted into fresh media (1:100, v:v), and grown to an optical density (OD) of 0.4 (approximately three hours). At this time, the cultures were again diluted into fresh media (1:50, v:v) and 200 μL of the resultant dilution were placed into each well of an Innovotech 96 well biofilm inoculator plate. The inoculator was added to the wells of the culture plate and it was placed in a shaker incubator overnight (37° C., 150 rpm). The spent media was decanted each morning and refreshed with equal volumes of new media, and the inoculator was again placed in a shaker incubator overnight (37° C., 150 rpm). […]
A 10% (v:v) stock solution of each DES in CAMHB was serially diluted into fresh CAMHB in the wells of a 96 well plate. […] MSSA cells were allowed to grow overnight in the shaker incubator and viability was assessed via measurement of optical density at 600 nm using a plate reader (Synergy HT). […]

As for `CC(C)=CCC/C(C)=C/C(=O)O` [geranic acid], the MBEC in the series on MSSA (pH=6.4, 0.1% Tween 20) is listed as 2.5 % in water; with MSSA (pH=8.4, 0.1% Tween 20), > 10%. In series [1], the pKa is 5-5.5.

On to “Choline Geranate Ionic Liquid [2; CAGE (1:1)]”, for which the “MBEC (% by volume)” value in the series with MSSA biofilms (2-hour challenge, 72 hr MSSA biofilms, dilutions in CAMHB 0.313-10% (v:v)) is recorded as 5-10 % by volume. Further, the “MBEC against MSSA” value with MSSA biofilms (in water) is 5-10%.

For the compound choline geranate [CAGE], the “Toxicity to mammalian skin cell lines” value in series [2] was “generally non-toxic to mammalian skin cell lines”.
